Data taken from patent US20060173069A1, “Therapeutic agent for hyperpotassemia and bone disease” (RIKEN, priority 2003, published 2006).
Positions of bridges follow the written chain, without caps; N, C: chain ends. No end group written: not given here.

Legend:
mature osteoclasts = assay: Cell-death (apoptosis) inducing activity on mature osteoclasts, number of TRAP-stained multinuclear cells; assay type: cell-based, mouse; conditions: Mus musculus, Osteoclast; RAW264-derived mature osteoclasts, 24 hours incubation, TRAP staining; read-out: ED50 level of cell-death inducing activity to mature osteoclasts, Number of cells
Procedure: Using 29 different reveromycin A derivatives synthesized as described above, the cell-death inducing activities on the mature osteoclasts and undifferentiated macrophage-like cells derived from a mouse (RAW264 cells) were examined, respectively. The RAW264 cells, a mouse-macrophage cell line, were suspended in a 10% FBS-αMEM (manufactured by Gibco BRL Co., Ltd.) and then 12,000 cells/100 μl were inoculated in a 96-well plate. After 1-hour incubation, 100 μl of a culture medium containing RANKL ([…]) and PD98059 (40 μM) were added (final concentration: RANKL […] and PD98059 20 μM) and then incubated for 4 days to allow the differentiation of the cells to mature osteoclasts (J. Biol. Chem. Vol. 277, pp. 47366-47372 (2002)). Furthermore, on the second day of the culture, the half of the culture medium was replaced with new one. From each well of the plate where the cells were differentiated to the mature osteoclasts, 100 μl/well of the culture medium was removed. […] The apoptosis inducing activity was confirmed by the observation of agglutination of nuclei stained with 10 μM Hoechst 33258 for 10-minututes.

[1] = system: undifferentiated RAW264 cells; assay: Cell-death inducing activity on undifferentiated RAW264 cells, MTT method; assay type: cell-based, mouse; conditions: Mus musculus, RAW264.7; 24 hours incubation, MTT; read-out: ED50 level of cell-death inducing activity to undifferentiated RAW264 cells, MTT
Procedure: The cell-death inducing activities to the undifferentiated RAW264 cells were investigated by the MTT method (J. Immunol. Methods, Vol. 65, pp 55-63 (1983). The RAW 264 cells were plated on a 96-well plate at a density of 40,000 cells/100 μl and then incubated for 24 hours. After the 24-hour incubation, 50 μl of a culture medium containing a three-fold concentration of the drug was added and then incubated for 24 hours to investigate the cell-death inducing activity. Two hours before the measurement of the cell-death inducing activity, 15 μl of 0.5% MTT-PBS (phosphate buffer saline) was added and incubated. After that, the residue from which the culture solution was removed was dissolved in 100 μl of DMSO (dimethyl sulfoxide) and the absorbance at 570 nm (a reference wave length of 630 nm) was measured, followed by calculating the ED50 level of the cell-death inducing activity.

[2] = system: bone resorption due to parathyroid hormone (PTH); assay: Serum calcium in TPTX rats with hypercalcemia by continuous PTH infusion; assay type: in vivo, SD rats; conditions: comparison of calcitonin with reveromycin A derivatives
Procedure: The bone resorption inhibitory effects of the reveromycin A derivatives were examined by measuring the level of serum calcium released in the blood by the action of bone resorption. SD rats were subjected to an operation of extracting the thyroid glands and the parathyroid glands (TPTX). Next day, a decrease in serum calcium was confirmed and then the continuous infusion of the parathyroid hormone (PTH) was carried out, thereby creating rats each having hypercalcemia by accelerating the bone resorption.
At 12 hours from the initiation of PTH injection, the reveromycin A derivatives ([…]) or a sodium salt thereof ([…]) were administered and the level of serum calcium was then measured in time-course for 24 hours.

| Molecule | EC50 (mature osteoclasts) [µM] | CC50 [1] [µM] | duration of inhibitory action on bone resorption [2] |
| --- | --- | --- | --- |
| CCCC[C@@]1(O)CC[C@]2(CC[C@H](C)[C@@H](C/C=C(C)/C=C/[C@H](OC)[C@@H](C)/C=C/C(=O)OC)O2)O[C@H]1/C=C/C(C)=C/C(=O)OC (mixture of isomers) [Compound 7] | > 51 | > 169 |  |
| CCCC[C@@]1(O)CC[C@]2(CC[C@H](C)[C@@H](C/C=C(C)/C=C/[C@H](O)[C@@H](C)/C=C/C(=O)O)O2)O[C@H]1/C=C/C(C)=C/C(=O)O (mixture of isomers) [Compound 11] | 41 | > 178 |  |
| CCCC[C@]1(C(/C=C/C(C)=C/C(=O)O)OC(=O)CCC(=O)O)CC[C@]2(CC[C@H](C)[C@@H](C/C=C(C)/C=C/[C@H](O)[C@@H](C)/C=C/C(=O)O)O2)O1 (some centres unmarked) [Compound 1] | > 45 | 132 |  |
| CCCC[C@@]1(OC(=O)CCC(=O)O)CC[C@]2(CC[C@H](C)[C@@H](CCO)O2)O[C@H]1/C=C/C(C)=C/C(=O)O [Compound 3] | > 6 | > 6 |  |
| CCCC[C@@]1(OC(=O)CCC(=O)O)CC[C@]2(CC[C@H](C)[C@@H](C/C=C(\C)CO)O2)O[C@H]1/C=C/C(C)=C/C(=O)O [Compound 4] | > 5.6 | > 5.6 |  |
| CCCC[C@@]1(OC(=O)CCC(=O)O)CC[C@]2(CC[C@H](C)[C@@H](C/C=C(\C)COC(=O)CCC(=O)O)O2)O[C@H]1/C=C/C(C)=C/C(=O)O [Compound 5] | > 47 | > 157 |  |
| CCCC[C@]1([C@@H](O)/C=C/C(C)=C/C(=O)O)CC[C@]2(CC[C@H](C)[C@@H](C/C=C(C)/C=C/[C@H](O)[C@@H](C)/C=C/C(=O)O)O2)O1 [Compound 10] | > 54 | > 178 |  |
| CCCC[C@@]1(OC(=O)CCC(=O)OC)CC[C@]2(CC[C@H](C)[C@@H](C/C=C(C)/C=C/[C@H](O[Si](C)(C)C(C)(C)C)[C@@H](C)/C=C/C(=O)OC)O2)O[C@H]1/C=C/C(C)=C/C(=O)O [Compound 12] | 0.6 | 1 |  |
| CCCC[C@@]1(OC(=O)CCC(=O)O)CC[C@]2(CC[C@H](C)[C@@H](C/C=C(C)/C=C/[C@H](O)[C@@H](C)/C=C/C(=O)OC)O2)O[C@H]1/C=C/C(C)=C/C(=O)OC [Compound 13] | 2.5 | 7.6 |  |
| CCCC[C@@]1(OC(=O)CCC(=O)OC)CC[C@]2(CC[C@H](C)[C@@H](C/C=C(C)/C=C/[C@H](O)[C@@H](C)/C=C/C(=O)O)O2)O[C@H]1/C=C/C(C)=C/C(=O)OC [Compound 14] | 3.3 | 25 |  |
| CCCC[C@@]1(OC(=O)CCC(=O)O)CC[C@]2(CC[C@H](C)[C@@H](C/C=C(C)/C=C/[C@H](O)[C@@H](C)/C=C/C(=O)OC)O2)O[C@H]1/C=C/C(C)=C/C(=O)O [Compound 15] | 5.8 | 25 |  |
| CCCC[C@@]1(OC(=O)CCC(=O)OC)CC[C@]2(CC[C@H](C)[C@@H](C/C=C(C)/C=C/[C@H](O)[C@@H](C)/C=C/C(=O)OC)O2)O[C@H]1/C=C/C(C)=C/C(=O)OC [Compound 16] | 26 | > 142 |  |
| CCCC[C@@]1(OC)CC[C@]2(CC[C@H](C)[C@@H](C/C=C/C(C)=C/C(=O)O)O2)O[C@H]1/C=C/C(C)=C/C(=O)O [Compound 17] | > 61 |  |  |
| CCCC[C@@]1(OC(=O)CCC(=O)OC)CC[C@]2(CC[C@H](C)[C@@H](C/C=C(C)/C=C/C(C)O)O2)O[C@H]1/C=C/C(C)=C/C(=O)OC (some centres unmarked) [Compound 19] | 36 | > 50 |  |
| CCCC[C@@]1(OC(=O)CCC(=O)OC)CC[C@]2(CC[C@H](C)[C@@H](C/C=C(C)/C=C/C(O)c3ccccc3)O2)O[C@H]1/C=C/C(C)=C/C(=O)OC (some centres unmarked) [Compound 20] | > 45 | > 150 |  |
| CCCC[C@@]1(OC(=O)CCC(=O)OC)CC[C@]2(CC[C@H](C)[C@@H](C/C=C(C)/C=C/[C@H](O)[C@@H](C)/C=C/C(=O)O)O2)O[C@H]1/C=C/C(C)=C/C(=O)O [Compound 21] | 7.3 | 21 |  |
| CCCC[C@@]1(OC(=O)CCC(=O)O)CC[C@]2(CC[C@H](C)[C@@H](C/C=C(C)/C=C/[C@H](O)[C@@H](C)/C=C/C(=O)O)O2)O[C@H]1/C=C/C(C)=C/C(=O)OC [Compound 22] | 9.3 | 53 |  |
| CCCC[C@@]1(OC(=O)CCC(=O)O)CC[C@]2(CC[C@H](C)[C@@H](C/C=C(C)/C=C/C(C)O)O2)O[C@H]1/C=C/C(C)=C/C(=O)OC (some centres unmarked) [Compound 23] | > 17 | > 17 |  |
| CCCC[C@@]1(OC(=O)CCC(=O)O)CC[C@]2(CC[C@H](C)[C@@H](C/C=C(C)/C=C/C(O)c3ccccc3)O2)O[C@H]1/C=C/C(C)=C/C(=O)OC (some centres unmarked) [Compound 24] | > 15 | > 15 |  |
| CCCC[C@@]1(OC(=O)CCC(=O)O)CC[C@]2(CC[C@H](C)[C@@H](C/C=C(C)/C=C/[C@@H](C)O)O2)O[C@H]1/C=C/C(C)=C/C(=O)OC [Compound 25] | > 17 | > 17 |  |
| CCCC[C@@]1(OC(=O)CCC(=O)O)CC[C@]2(CC[C@H](C)[C@@H](C/C=C(C)/C=C/[C@H](OC)[C@@H](C)/C=C/C(=O)O)O2)O[C@H]1/C=C/C(C)=C/C(=O)O [Compound 26] | > 44 | > 148 |  |
| CCCC[C@@]1(OC)CC[C@]2(CC[C@H](C)[C@@H](C/C=C(C)/C=C/[C@H](O)[C@@H](C)/C=C/C(=O)O)O2)O[C@H]1/C=C/C(C)=C/C(=O)O [Compound 1390-II] | > 5.2 |  |  |
| CCCC[C@]1(C(/C=C/C(C)=C/C(=O)O)OC)CC[C@]2(CC[C@H](C)[C@@H](C/C=C(C)/C=C/[C@H](O)[C@@H](C)/C=C/C(=O)O)O2)O1 (some centres unmarked) [Compound 1392-II] | > 52 | > 174 |  |
| CCCC[C@@]1(OC(=O)CCC(=O)O)CC[C@]2(CC[C@H](C)[C@@H](C/C=C(C)/C=C/[C@H](O)[C@@H](C)/C=C/C(=O)O)O2)O[C@H]1/C=C/C(C)=C/C(=O)O [Reveromycin A, reveromycin A, reference compound] | 0.18 | 24 |  |
| calcitonin (CGNLSTCMLGTYTQDFNKFHTFPQTAIGVGAP-NH2; disulfide 1-7; ends not checked; UniProt P01258 85-116, looked up) [reference compound] |  |  | shorter inhibitory action on bone resorption |
